Reference: a melting point compilation (Tetko et al.; mined from patent text by program, amines drawn as free bases though some values may be those of a salt)

| Structure (SMILES) | melting point |
| --- | --- |
| Cc1nc(N2CCN(Cc3cccc(C(F)(F)F)c3)C2=O)sc1C(=O)NCc1cccnc1 | 175 to 176 °C |
| Cc1cc(C#N)cc(C(=O)c2c(C(C)C)c(=O)[nH]c(=O)n2CC2(CC(N)=O)CC2)c1 | 283 to 285 °C |
| CCOC(=O)c1ccc(OCC2CN(c3cccnn3)CCO2)cc1 (configuration not stated) | 110 °C |
| COc1cccc(C=N[C@H](C)c2ccc([N+](=O)[O-])cc2)c1O | 88 to 90 °C |
| CCCCc1nc2c(N)nc3ccccc3c2s1 | 149 to 151 °C |
| CC(=O)OCC1OC(n2cc(C(I)=CI)c(=O)[nH]c2=O)CC1OC(C)=O (configuration not stated) | 76 to 78 °C |
| CCc1nc2c(N)nc3ccccc3c2n1CC#Cc1cccc(C(F)(F)F)c1 | 202 to 204 °C |
| COc1cc(Nc2c(C#N)cnc3cc(C#Cc4cnn(CCN5CCOCC5)c4)sc23)c(Cl)cc1Cl | > 200 °C |
| CCOc1ccc2cc(-c3nn(C(C)c4oc5ccccc5c(=O)c4-c4cccc(F)c4)c4ncnc(N)c34)ccc2c1 (configuration not stated) | 286 to 290 °C |
| CCCCCCCCCCCCCCCCCCOc1ccc2ccccc2c1O | 58 to 59 °C |
| CCCCN(Cc1ccccc1)C(=O)Nc1cccc(Cl)c1O | 59 to 62 °C |
| Cc1cc(COC2=NS(=O)(=O)c3ccccc32)sn1 | 202 to 204 °C |
| CCCCOCCOc1ccc(-c2ccc3c(c2)C=C(C(=O)Nc2ccc(S(=O)Cc4nncn4CCCC)cc2)CCN3CC(C)C)cc1 (configuration not stated) | 178 to 180 °C |
| CN1Cc2cncn2C(c2ccc(Br)cc2)C1=O (configuration not stated) | 143 to 144 °C |
| NC(=O)c1ccc(CN2CCN(C(=O)c3cc(C(F)(F)F)cc(C(F)(F)F)c3)[C@H](Cc3c[nH]c4ccccc34)C2)cc1 | 120 to 126 °C |
| CCOC(=O)c1c[nH]c2cnc3c(F)c(Cl)c(F)cc3c2c1=O | 328 °C |
| COc1ccc(-c2c(CO)c(C)nc3cc(OC)c(OC)cc23)cc1OC | 200 to 201 °C |
| CCn1c(=O)cc(C)c2ccc(OCCCN3CCC(NC(=O)c4ccccc4)CC3)cc21 | 164 to 165 °C |
| CC(C)(C)OC(=O)[C@@H]1CS[C@H](c2ccccc2)N1C(=O)CNC(=O)Nc1cccc(C(=O)O)c1 | 134 °C |
| CCOP(=O)(Cc1cccc(NC(=O)C2=Cc3cc(C4CCCCC4)ccc3CC2)c1)OCC | 54 to 56 °C |
| CC(C(=O)c1ncn2c1c(=O)n(C(C)C)c1ccccc12)C(=O)C1CC1 (configuration not stated) | 167 to 169 °C |
| C=C(C)Sc1oc2cc(OCc3ccccc3)ccc2c(=O)c1-c1ccc(OC)cc1 | 101 to 102 °C |

| Structure (SMILES) | melting point |
| --- | --- |
| COc1ccc2c(=O)c(-c3ccc(F)cc3)c(-c3ccc(S(N)(=O)=O)cc3)oc2c1 | 245 °C |
| CC12CCC(=O)C(N)=C1CCC1C2CCC2(C)C(OC3CC3)CCC12 (configuration not stated) | 85 to 88 °C |
| CCCCc1oc2ccccc2c1Cc1cc(Br)c(O[C@H](Cc2ccccc2)C(=O)O)c(Br)c1 | 225 to 226 °C |
| O=c1c2c(Cc3ccc(OC(F)(F)F)cc3)n[nH]c2c2cccnc2n1-c1ccccc1 | 216 to 218 °C |
| Nc1nc(-c2ccc(-c3ccccc3)cc2)cn1N | > 280 °C |
| CC1COC(=O)N1c1cc(-c2ccnc(Nc3cccc(Cl)c3)n2)ccn1 (configuration not stated) | 177 to 178 °C |
| COc1ccc(S(=O)(=O)n2c(N)nc3c2c(=O)n(CC2CC2)c(=O)n3CC2CC2)cc1 | 177 to 178 °C |
| C[C@@H](n1cnc2cc(C(F)(F)F)ccc2c1=O)[C@](O)(Cn1cncn1)c1ccc(Cl)cc1Cl | 158 to 160 °C |
| CCCCCCCCCCCCc1cc(O)ccc1S | 75 to 76 °C |
| CC(C)[C@@H](C(N)=O)C(=O)O | 174 °C |
| ClCC1COC(Cc2ccc(Cl)cc2)(c2ccccc2)O1 (configuration not stated) | 65 °C |
| CC(Cl)OC(=O)Oc1c(Br)cc(C#N)cc1Br (configuration not stated) | 91 to 93 °C |
| COc1ccc(NC(=O)/C=C/c2c(OC)cc(OC)cc2OC)cc1 | 198 to 200 °C |
| COc1cc(OCC2CCCO2)ccc1C=O (configuration not stated) | 73.3 °C |
| CC(C)c1cccc(C(C)C)c1NC(=O)C1CCCC(Cc2ccccn2)(Cc2ccccn2)C1=O (configuration not stated) | 70 to 73 °C |
| COc1nc(-c2ccc(F)cc2C)c2c(n1)N(c1c(F)cccc1F)C(=O)NC2 | 210 to 211 °C |
| COc1ccccc1NC(=O)Nc1nc(Nc2ccccc2-c2ccccc2)nc(N(CCC(=O)O)Cc2ccc(F)c(F)c2)n1 | 115 to 120 °C |
| O=[N+]([O-])c1ccc(OCc2ccccc2)cc1OCc1ccccc1 | 101 to 103 °C |
| O=C1c2ccccc2C(=O)N1CCN1CCC(=C2c3ccccc3C=Cc3ccccc32)CC1 | 190 °C |
| COC(=O)C1OC(I)C(OC(=O)C(C)(C)C)C(OC(=O)C(C)(C)C)C1OC(=O)C(C)(C)C (configuration not stated) | 98 to 100 °C |
| CCOC(=O)Cc1ccc(NC(=O)C(COc2ccc(Cl)cc2)NS(=O)(=O)c2ccc(Cl)cc2)cc1 (racemic) | 136 to 138 °C |
| C[Si](C)(C)c1c(CCC=O)cnc2c1CCO2 | 59 to 60 °C |

| Structure (SMILES) | melting point |
| --- | --- |
| COc1cc2ncnc(N3CCC(CN)CC3)c2cc1OC | 144 to 146 °C |
| COc1cccc2cc3c(c(-c4ccc5c(c4)OCO5)c12)C(=O)NC3=O | 291 to 293 °C |
| COC(=O)c1ccc(OCC(N)=O)c(N)c1 | 181 to 182 °C |
| Cc1ccc2c(NCc3ccc(NC(=O)C4CCN(Cc5ccccc5)CC4)cc3)nc(N(C)C)nc2c1 | 100 °C |
| CCOc1cccc(C)c1S(=O)(=O)N=C=O | 40 °C |
| O=C(O)C=CC(=O)NCCCCCCCCCCCCCCCCCC(=O)O | 144 to 148 °C |
| CCOC(=O)NC(=O)c1nn(-c2cc(Cl)c(C(C)(C)C#N)c(Cl)c2)c(=O)[nH]c1=O | 110 °C |
| Cc1cc(O)c(Cl)c(O)c1 | 72 °C |
| CSc1c(C(Cc2ccc(F)cc2)C(=O)O)ccc2c3ccccc3n(Cc3ccc(F)cc3)c12 (configuration not stated) | 90 to 94 °C |
| CS(=O)c1ccc(COc2cccc(C(=O)Nc3ccc(C#N)cc3)c2)cc1 (configuration not stated) | 174 to 175 °C |
| N#Cc1cccc(CN2CCN(c3ccc(NC(=O)c4ccccc4OCc4ccc(C(F)(F)F)cc4)cc3)CC2)c1 | 190 to 191 °C |
| CN(C)C=CC(=O)c1cccc(NC=O)c1 | 165 to 167 °C |
| Cc1ncc2c(c1OCC(=O)O)COC2c1ccccc1 (configuration not stated) | 220 °C |
| COc1c(F)cc(Cn2cnnc2S)cc1F | 124 to 126 °C |
| CCc1ccc(C(=O)c2ccc(F)cc2)c(O)c1 | 44 to 48 °C |
| CCS(=O)(=O)Nc1cc(-n2nc(C(F)F)n(C)c2=S)c(F)cc1C(N)=S | 183 °C |
| CCCc1nc2c(N)nc(C)c(C)c2n1CCCCCS(=O)(=O)c1ccc(F)cc1 | 130 to 132 °C |
| CC(C)(C)OC(=O)N1CC(c2ccc(N)nc2)C1 | 103 to 104 °C |
| O=Cc1cnc(Cl)c(Cl)c1 | 65 °C |
| CC(O)c1onc(-c2ccccc2Cl)c1C(=O)c1nnn(Cc2cc(C(F)(F)F)cc(C(F)(F)F)c2)c1N1CCOCC1 (configuration not stated) | 145 to 146 °C |

Next, values leading:

| melting point | Structure (SMILES) |
| --- | --- |
| 185 to 187 °C | COC(=O)c1cc(-n2cnnn2)ccc1OC |
| 136 to 137 °C | O=c1ccoc2cc(O)ccc12 |
| 254 to 256 °C | COC(=O)c1ccc2c(=O)n(Cc3ccc(OC)cc3)c(=O)[nH]c2c1 |
| 169 to 172 °C | CC(=O)c1cc(-c2ccc(S(C)(=O)=O)cc2)c(-c2ccc(F)cc2)s1 |
| 187 to 189 °C | Cc1ccc(=O)n(-c2cc(-c3ccnc(Nc4cccc(Cl)c4)n3)ccn2)n1 |
| 100 to 102 °C | CCCc1c(OCCCCOc2cccc(Sc3ccc(C(=O)O)cc3)c2)ccc(C(C)=O)c1O |
| 149 to 151 °C | O=S1(=O)NCN(C2CC2)c2c(F)cc(F)c(F)c21 |
| 173 to 178 °C | COc1cc2c(cc1CCCCN1CCCC1)[nH]c1cc(-c3ccccc3Cl)c3c(c12)C(=O)NC3=O |
| > 290 °C | O=C(O)[C@H]1CC[C@H](Nc2ncc3ncnc(Nc4ccc(F)c(Cl)c4)c3n2)CC1 |
| 107 to 108 °C | COC(=O)c1csc(-c2ccc(C#N)cc2)n1 |
| 84 to 86 °C | CCCCCCCCCCCCCCCCCNC(=O)O[C@@H]1CCCO[C@H]1CO (relative stereo) |
| 77 to 78 °C | CCC(C)n1nnc2c(N=C=S)cccc21 (configuration not stated) |
| 118 °C | CCC1(CC)Cc2cc(OC)c(Cl)c(Cl)c2C1=O |
| 73 to 75 °C | CCOC(=O)COc1cc2cc(C3CCCCC3)sc2c(Cl)c1Cl |
| 55 to 56 °C | COc1cccc(CC(=S)N2CCCCC2)c1 |
| 141 to 142 °C | O=C(/C=C/c1ccsc1)N1CCOCC1 |
| 223 to 224 °C | Cc1nn(C)c(O)c1C(=O)c1ccc(Cl)cc1[N+](=O)[O-] |

| melting point | Structure (SMILES) |
| --- | --- |
| 103 to 109 °C | COc1ccc(Br)c(/C=C/c2cc(/C=C/c3ccc4cc[nH]c4c3)[nH]n2)c1 |
| 109 to 111 °C | COc1ccc(-c2c(C(=O)O)n(Cc3ccc4c(c3)OCO4)c3ccccc23)cc1 |
| 294 to 295 °C | N#Cc1c2cccccc-2n(CC(=O)O)c1=O |
| 147 to 150 °C | CCOC(=O)c1cn(CC)c2c(F)c(C)c(F)cc2c1=O |
| 298 to 300 °C | CC(=Cc1c(-c2ccccc2)nc2sc(C)nn12)C(=O)O |
| 153 °C | O=c1[nH]c2cc(C(F)(F)F)ccc2n1CCCN1CCN(C(c2ccccc2)c2ccccc2)CC1 |
| 174 to 177 °C | O=C(O)c1cccc(-c2ccnc3c(C(=O)c4cccs4)cnn23)c1 |
| 100 to 104 °C | CC(C)(C)[Si](C)(C)OCc1cc(-c2ccc3nc(Cl)cn3c2)cs1 |
| 285 to 287 °C | O=C(CCC12CCC(=O)N1C(=O)CC2)Nc1ccncc1 |
| 179 to 186 °C | CCn1c(C)nc2cc(S(C)(=O)=O)c(Cl)c(N)c21 |
| 62 to 68 °C | OC(c1ccccc1Cl)C(c1ccccc1Cl)n1ccnc1 (configuration not stated) |
| 158 to 159 °C | Cc1cc2c(c(C)c1NC(=O)CC(C)(C)C)C(c1ccccc1)CO2 (configuration not stated) |
| 120 °C | Clc1ccc(-n2nc3cc(Cl)ccc3c2Cl)c(Cl)c1 |
| 279 to 280 °C | CC(C)c1cccc(C(C)C)c1NC(=O)Cc1c(-c2ccccc2)c2cc(Cl)ccc2n1C |
| 170 to 172 °C | CCc1oc2ccccc2c1C(=O)c1ccc(Cl)c(S(N)(=O)=O)c1 |
| 159 to 162 °C | CC(=O)CCc1ccc2c(c1)Cc1cc([N+](=O)[O-])ccc1-2 |
